pIC50: −log10 of the molar value. Activity calls are given as the source filed them. The rule behind the calls is not given here.
Key:
[1] = test system: MDA-MB-231; experiment: Cell cycle arrest in human MDA-MB-231 cells harboring p53 mutant assessed as accumulation at S phase at 25 uM measured after 48 hrs by Hoechst/BrdU staining based fluorescence assay (reference value: 42.2%); type: functional
[2] = test system: MDA-MB-231; experiment: Cytotoxicity against human MDA-MB-231 cells assessed as cell viability after 48 hrs by Hoechst 33342 staining based assay; type: functional; settings: MDA-MB-231, 48 h
[3] = test system: HCT-116; experiment: Cell cycle arrest in human HCT116 cells harboring wild-type p53 assessed as accumulation at M phase at 50 uM measured after 48 hrs by Hoechst staining based fluorescence assay (reference value: 2.3 to […]); type: functional
[4] = test system: Huh-7; experiment: Cytotoxicity against human HuH7 cells assessed as cell viability after 48 hrs by Hoechst 33342 staining based assay; type: functional; settings: Huh-7, 48 h
[5] = test system: MCF7; experiment: Cytotoxicity against human MCF7 assessed as cell viability after 48 hrs by Hoechst 33342 staining based assay; type: functional; settings: MCF7, 48 h
[6] = test system: PC-3; experiment: Cell cycle arrest in human PC3 cells harboring p53 mutant assessed as accumulation at S phase at 10 uM measured after 48 hrs by Hoechst/BrdU staining based fluorescence assay (reference value: 40.8%); type: functional
[7] = test system: Huh-7; experiment: Cell cycle arrest in human HuH7 cells assessed as accumulation at S phase at 25 uM measured after 48 hrs by Hoechst/BrdU staining based fluorescence assay (reference value: 44%); type: functional
[8] = test system: HaCaT; experiment: Cell cycle arrest in human HaCaT cells harboring […] p53 assessed as accumulation at S phase at 10 uM measured after 48 hrs by Hoechst/BrdU staining based fluorescence assay (reference value: 52.3%); type: functional
[9] = test system: RL; experiment: Cytotoxicity against human RL assessed as cell viability after 48 hrs by Hoechst 33342 staining based assay; type: functional
[10] = test system: MDA-MB-231; experiment: Cell cycle arrest in human MDA-MB-231 cells assessed as accumulation at G1/S phase by Hoechst staining based fluorescence assay; type: functional
[11] = test system: NCI-H727; experiment: Cell cycle arrest in human NCI-H727 cells harboring p53 mutant assessed as accumulation at S phase at 25 uM measured after 48 hrs by Hoechst/BrdU staining based fluorescence assay (reference value: 40.3%); type: functional
[12] = test system: HCT-116; experiment: Cell cycle arrest in human HCT116 cells harboring wild-type p53 assessed as accumulation at S phase at 50 uM measured after 48 hrs by Hoechst/BrdU staining based fluorescence assay (reference value: 68%); type: functional
[13] = test system: MDA-MB-231; experiment: Cell cycle arrest in human MDA-MB-231 cells harboring p53 mutant assessed as accumulation at S phase at 10 uM measured after 48 hrs by Hoechst/BrdU staining based fluorescence assay (reference value: 42.2%); type: functional
[14] = test system: NCI-H727; experiment: Cell cycle arrest in human NCI-H727 cells harboring p53 mutant assessed as mitotic index at 25 uM measured after 48 hrs by Hoechst staining based fluorescence assay (reference value: 1.1); type: functional
[15] = test system: HaCaT; experiment: Cytotoxicity against human HaCaT cells assessed as cell viability after 48 hrs by Hoechst 33342 staining based assay; type: functional
[16] = test system: HCT-116; experiment: Cell cycle arrest in human HCT116 cells harboring wild-type p53 assessed as accumulation at M phase at 25 uM measured after 48 hrs by Hoechst staining based fluorescence assay (reference value: 2.3 to […]); type: functional
[17] = test system: HCT-116; experiment: Cell cycle arrest in human HCT116 cells harboring wild-type p53 assessed as accumulation at S phase at 25 uM measured after 48 hrs by Hoechst/BrdU staining based fluorescence assay (reference value: 68%); type: functional
[18] = test system: HCT-116; experiment: Cell cycle arrest in human HCT116 cells assessed as accumulation at G1/S phase by Hoechst staining based fluorescence assay; type: functional
[19] = test system: HCT-116; experiment: Cell cycle arrest in human HCT116 cells harboring wild-type p53 assessed as accumulation at S phase at 25 uM measured after 48 hrs by Hoechst/BrdU staining based fluorescence assay (reference value: 68.4%); type: functional
[20] = test system: Huh-7; experiment: Cell cycle arrest in human HuH7 cells assessed as accumulation at G1/S phase by Hoechst staining based fluorescence assay; type: functional
[21] = test system: HaCaT; experiment: Cell cycle arrest in human HaCaT cells assessed as accumulation at G1/S phase by Hoechst staining based fluorescence assay; type: functional
[22] = test system: HaCaT; experiment: Cell cycle arrest in human HaCaT cells harboring […] p53 assessed as accumulation at S phase at 25 uM measured after 48 hrs by Hoechst/BrdU staining based fluorescence assay (reference value: 52.3%); type: functional
[23] = test system: PC-3; experiment: Cytotoxicity against human PC3 cells assessed as cell viability after 48 hrs by Hoechst 33342 staining based assay; type: functional; settings: PC-3, 48 h
[24] = test system: NCI-H727; experiment: Cell cycle arrest in human NCI-H727 cells harboring p53 mutant assessed as accumulation at S phase at 10 uM measured after 48 hrs by Hoechst/BrdU staining based fluorescence assay (reference value: 40.3%); type: functional
[25] = test system: PC-3; experiment: Cell cycle arrest in human PC3 cells assessed as accumulation at G2/M phase by Hoechst staining based fluorescence assay; type: functional
[26] = test system: Fibroblast; experiment: Cytotoxicity against human fibroblasts assessed as cell viability after 48 hrs by Hoechst 33342 staining based assay
[27] = test system: Huh-7; experiment: Cell cycle arrest in human HuH7 cells assessed as accumulation at S phase at 10 uM measured after 48 hrs by Hoechst/BrdU staining based fluorescence assay (reference value: 44%); type: functional
[28] = test system: PC-3; experiment: Cell cycle arrest in human PC3 cells harboring p53 mutant assessed as accumulation at S phase at 25 uM measured after 48 hrs by Hoechst/BrdU staining based fluorescence assay (reference value: 40.8%); type: functional
[29] = test system: NCI-H727; experiment: Cell cycle arrest in human NCI-H727 cells harboring p53 mutant assessed as mitotic index at 10 uM measured after 48 hrs by Hoechst staining based fluorescence assay (reference value: 1.1); type: functional
[30] = test system: HCT-116; experiment: Cell cycle arrest in human HCT116 cells harboring wild-type p53 assessed as accumulation at S phase at 10 uM measured after 48 hrs by Hoechst/BrdU staining based fluorescence assay (reference value: 68.4%); type: functional
[31] = test system: NCI-H727; experiment: Cytotoxicity against human NCI-H727 cells assessed as cell viability after 48 hrs by Hoechst 33342 staining based assay; type: functional; settings: NCI-H727, 48 h
[32] = test system: Caco-2; experiment: Cell cycle arrest in human Caco2 cells assessed as mitotic index at 25 uM measured after 48 hrs by Hoechst staining based fluorescence assay (reference value: 3.6); type: functional
[33] = test system: HCT-116; experiment: Cytotoxicity against human HCT116 cells assessed as cell viability after 48 hrs by Hoechst 33342 staining based assay; type: functional; settings: HCT-116, 48 h
[34] = test system: PC-3; experiment: Cell cycle arrest in human PC3 cells harboring p53 mutant assessed as mitotic index at 10 uM measured after 48 hrs by Hoechst staining based fluorescence assay (reference value: 2.5); type: functional
[35] = test system: HCT-116; experiment: Cell cycle arrest in human HCT116 cells assessed as accumulation at G2/M phase by Hoechst staining based fluorescence assay; type: functional
[36] = Selectivity index, ratio of IC50 for human fibroblasts to IC50 for human PC3 cells
[37] = test system: MDA-MB-231; experiment: Cell cycle arrest in human MDA-MB-231 cells harboring p53 mutant assessed as mitotic index at 25 uM measured after 48 hrs by Hoechst staining based fluorescence assay (reference value: 2.1); type: functional
[38] = test system: Huh-7; experiment: Cell cycle arrest in human HuH7 cells assessed as mitotic index at 10 uM measured after 48 hrs by Hoechst staining based fluorescence assay (reference value: 2.2); type: functional
[39] = Selectivity index, ratio of IC50 for human fibroblasts to IC50 for human MCF7 cells
[40] = Selectivity index, ratio of IC50 for human fibroblasts to IC50 for human HCT116 cells
[41] = test system: Caco-2; experiment: Cell cycle arrest in human Caco2 cells assessed as mitotic index at 10 uM measured after 48 hrs by Hoechst staining based fluorescence assay (reference value: 3.6); type: functional
[42] = test system: PC-3; experiment: Cell cycle arrest in human PC3 cells harboring p53 mutant assessed as mitotic index at 25 uM measured after 48 hrs by Hoechst staining based fluorescence assay (reference value: 2.5); type: functional
[43] = test system: HCT-116; experiment: Cell cycle arrest in human HCT116 cells harboring wild-type p53 assessed as mitotic index at 10 uM measured after 48 hrs by Hoechst staining based fluorescence assay (reference value: 2.3); type: functional
[44] = test system: HCT-116; experiment: Cell cycle arrest in human HCT116 cells harboring wild-type p53 assessed as mitotic index at 25 uM measured after 48 hrs by Hoechst staining based fluorescence assay (reference value: 2.3); type: functional
[45] = test system: HaCaT; experiment: Cell cycle arrest in human HaCaT cells harboring […] p53 assessed as mitotic index at 10 uM measured after 48 hrs by Hoechst staining based fluorescence assay (reference value: 2.6); type: functional
[46] = test system: Caco-2; experiment: Cell cycle arrest in human Caco2 cells assessed as accumulation at S phase at 25 uM measured after 48 hrs by Hoechst/BrdU staining based fluorescence assay (reference value: […]); type: functional
[47] = Selectivity index, ratio of IC50 for human fibroblasts to IC50 for human Caco2 cells
[48] = test system: Caco-2; experiment: Cell cycle arrest in human Caco2 cells assessed as accumulation at S phase at 10 uM measured after 48 hrs by Hoechst/BrdU staining based fluorescence assay (reference value: […]); type: functional
[49] = test system: Caco-2; experiment: Cytotoxicity against human Caco2 cells assessed as cell viability after 48 hrs by Hoechst 33342 staining based assay; type: functional; settings: Caco-2, 48 h
[50] = test system: MDA-MB-231; experiment: Cell cycle arrest in human MDA-MB-231 cells harboring p53 mutant assessed as mitotic index at 10 uM measured after 48 hrs by Hoechst staining based fluorescence assay (reference value: 2.1); type: functional
[51] = test system: Huh-7; experiment: Cell cycle arrest in human HuH7 cells assessed as mitotic index at 25 uM measured after 48 hrs by Hoechst staining based fluorescence assay (reference value: 2.2); type: functional
[52] = Selectivity index, ratio of IC50 for human fibroblasts to IC50 for human HaCaT cells
[53] = test system: PC-3; experiment: Cell cycle arrest in human PC3 cells assessed as accumulation at G1/S phase by Hoechst staining based fluorescence assay; type: functional
[54] = Selectivity index, ratio of IC50 for human fibroblasts to IC50 for human RL cells
[55] = test system: HaCaT; experiment: Cell cycle arrest in human HaCaT cells harboring […] p53 assessed as mitotic index at 25 uM measured after 48 hrs by Hoechst staining based fluorescence assay (reference value: 2.6); type: functional

## CC[C@H](CO)Nc1nc(NCc2ccccc2)c2ncn(C(C)C)c2n1 [SELICICLIB]
[1]
  Activity: 25%
[2]
  pIC50: 4.77
[3]
  Activity: 0.6%
[4]
  pIC50: 4.81
[5]
  pIC50: 4.99
[6]
  Activity: 17%
[7]
  Activity: 9%
[8]
  Activity: 26%
[9]
  pIC50: 6.05
[10]
  Activity: Active
[11]
  Activity: inactive
[12]
  Activity: 17%
[13]
  Activity: 27%
[14]
  Activity: inactive
[15]
  pIC50: 4.78
[16]
  Activity: 1.2%
[17]
  Activity: 25%
[18]
  Activity: Active
[19]
  Activity: 17%
[20]
  Activity: Active
[21]
  Activity: Active
[22]
  Activity: 3%
[23]
  pIC50: 4.78
[24]
  Activity: inactive
[25]
  Activity: Active
[26]
  pIC50: < 4.70
[27]
  Activity: 16%
[28]
  Activity: 38%
[29]
  Activity: inactive
[30]
  Activity: 25%
[31]
  pIC50: < 4.70

## Oc1cccc(-c2nc(N3CCOCC3)c3oc4ncccc4c3n2)c1 [PI-103]
[32]
  Activity_index: 0.9
[33]
  pIC50: 5.41
[34]
  Activity_index: 0.4
[1]
  Activity: inactive
[35]
  Activity: Active
[2]
  pIC50: < 4.70
[36]
  Ratio IC50: >3.3
[4]
  pIC50: < 4.70
[5]
  pIC50: 4.88
[37]
  Activity: inactive
[38]
  Activity: inactive
[6]
  Activity: 6%
[39]
  Ratio IC50: >1.9
[40]
  Ratio IC50: >6.4
[41]
  Activity_index: 1.4
[7]
  Activity: inactive
[8]
  Activity: 20%
[9]
  pIC50: 5.54
[42]
  Activity_index: 0.1
[11]
  Activity: inactive
[43]
  Activity_index: 1.9
[13]
  Activity: inactive
[44]
  Activity_index: 1.8
[45]
  Activity_index: 0.9
[14]
  Activity: inactive
[46]
  Activity: 20%
[15]
  pIC50: 5.46
[47]
  Ratio IC50: >12.5
[48]
  Activity: 28%
[49]
  pIC50: 5.70
[50]
  Activity: inactive
[51]
  Activity: inactive
[19]
  Activity: 63%
[52]
  Ratio IC50: >7.1
[21]
  Activity: Active
[53]
  Activity: Active
[22]
  Activity: 12%
[23]
  pIC50: 5.12
[24]
  Activity: inactive
[26]
  pIC50: < 4.70
[27]
  Activity: inactive
[28]
  Activity: 1.2%
[54]
  Ratio IC50: >8.6
[29]
  Activity: inactive
[30]
  Activity: 63%
[55]
  Activity_index: 0.5
[31]
  pIC50: < 4.70

Source: ChEMBL document CHEMBL3992552, “Mechanisms of action and structure-activity relationships of cytotoxic flavokawain derivatives” (Bioorg Med Chem, 2017)
